How the values were obtained:
Type in all cases: cell-based
[1] = system: INS-1 cells; experiment: Mitochondrial membrane potential by TMRM staining and FACS in INS-1 cells; details: 10 μM, 2 hours, TMRM staining, FACS
Method: (§1) If mitochondrial function is impaired, it may cause diabetes mellitus by interfering with insulin signaling. Accordingly, in order to confirm the effect of gypenoside 75 on the activation of the mitochondrial function, after gypenoside 75 was treated, an increased amount of ATP and mitochondrial membrane potentials were measured. Specifically, in order to confirm the effect of gypenoside 75 on the activation of the mitochondrial function, INS-1 cells, which are insulin-secreting cells, were cultured in a cell incubator (37° C., 5% CO2, RPMI culture medium, 10% FBS). The cells were treated with 10 μM of gypenoside 75 for 2 hours, and the amount of ATP and mitochondrial membrane potentials inside the cells were then measured. To measure the amount of intracellular ATP, the INS-1 cells treated with gypenoside 75 were lysed through freezing-thawing and ultrasonication methods. The cell lysates were mixed with luciferase and luciferin to induce fluorescence. As the activation of the luciferase and fluorescence induced thereby depend on the amount of ATP, the degree of fluorescence was measured with a fluorometer to determine the amount of ATP. To measure the mitochondrial membrane potential, the INS-1 cells treated with gypenoside 75 were then stained with TMRM, and the degree of the staining of each cell was measured using a FACS instrument. As the mitochondrial membrane potential increases, the degree of staining by TMRM increases.

[2] = system: INS-1 cells; experiment: Insulin secretion of INS-1 cells measured by ELISA; details: 10 μM, 2 hours
Method: In order to confirm the effect of gypenoside 75 on an increase in insulin secretion, the amount of insulin secreted after treatment with gypenoside 75 was measured. Specifically, in order to confirm the effect of gypenoside 75 on an increase in insulin secretion, INS-1 cells, which are insulin-secreting cells, were cultured in a cell incubator (37° C., 5% CO2, RPMI culture medium, 10% FBS). The cells were treated with each of 10 μM of gypenoside 75, ginsenoside F1, ginsenoside Rg3, ginsenoside Rb2, and ginsenoside Rb3 for 2 hours, and the amounts of insulin secreted after the treatments were then measured via the ELISA method.

[3] = system: INS-1 cells; experiment: Intracellular ATP amount by luciferase/luciferin assay in INS-1 cells; details: 10 μM, 2 hours, luciferase
Method: as §1

Structure (SMILES) | increase of mitochondrial membrane potential compared to control group (DMSO) [1] | increase of the amount of insulin secreted compared to control group (DMSO) [2] | increase of the amount of intracellular ATP compared to control group (DMSO) [3]
CC(C)=CCC[C@](C)(O[C@@H]1O[C@H](CO[C@@H]2OC[C@H](O)[C@H](O)[C@H]2O)[C@@H](O)[C@H](O)[C@H]1O)[C@H]1CC[C@]2(C)[C@@H]1[C@H](O)C[C@@H]1[C@@]3(C)CC[C@H](O[C@@H]4O[C@H](CO)[C@@H](O)[C@H](O)[C@H]4O[C@@H]4O[C@H](CO)[C@@H](O)[C@H](O)[C@H]4O)C(C)(C)[C@@H]3CC[C@]12C [ginsenoside Rb2] | about 20% | 50% | about 40%
CC(C)=CCC[C@](C)(O[C@@H]1O[C@H](CO[C@@H]2O[C@H](CO)[C@@H](O)[C@H](O)[C@H]2O)[C@@H](O)[C@H](O)[C@H]1O)[C@H]1CC[C@]2(C)[C@@H]1[C@H](O)C[C@@H]1[C@@]3(C)CC[C@H](O)C(C)(C)[C@@H]3CC[C@]12C [gypenoside 75] | about 40% | about 110% | 50%
CC(C)=CCC[C@](C)(O[C@@H]1O[C@H](CO[C@@H]2OC[C@@H](O)[C@H](O)[C@H]2O)[C@@H](O)[C@H](O)[C@H]1O)[C@H]1CC[C@]2(C)[C@@H]1[C@H](O)C[C@@H]1[C@@]3(C)CC[C@H](O[C@@H]4O[C@H](CO)[C@@H](O)[C@H](O)[C@H]4O[C@@H]4O[C@H](CO)[C@@H](O)[C@H](O)[C@H]4O)C(C)(C)[C@@H]3CC[C@]12C [ginsenoside Rb3] | about 20% | 50% | about 40%
CC(C)=CCC[C@](C)(O)[C@H]1CC[C@]2(C)[C@@H]1[C@H](O)C[C@@H]1[C@@]3(C)CC[C@H](O[C@@H]4O[C@H](CO)[C@@H](O)[C@H](O)[C@H]4O[C@@H]4O[C@H](CO)[C@@H](O)[C@H](O)[C@H]4O)C(C)(C)[C@@H]3CC[C@]12C [ginsenoside Rg3] | about 20% | 50% | about 40%
CC(C)=CCC[C@](C)(O[C@@H]1O[C@H](CO)[C@@H](O)[C@H](O)[C@H]1O)[C@H]1CC[C@]2(C)[C@@H]1[C@H](O)C[C@@H]1[C@@]3(C)CC[C@H](O)C(C)(C)[C@@H]3[C@@H](O)C[C@]12C [ginsenoside F1] | about 20% | 50% | about 40%
